Data from ChEMBL document CHEMBL1201862, “PubChem BioAssay data set” (2004).
Blank lines part the entries; values can stand above or below the compound they belong to. Activity calls are given as the source filed them.

Columns and labels:
[1] = biological target: T1, Leucine aminopeptidase (Plasmodium falciparum 3D7, UniProt Q8IL11); experiment: P. falciparum M17LAP inhibitors, primary screen, biochemical, fluorogenic H-Leu-NHMec substrate, 1536-well (AID 1619); format: functional
T1 sequence (Q8IL11 whole entry): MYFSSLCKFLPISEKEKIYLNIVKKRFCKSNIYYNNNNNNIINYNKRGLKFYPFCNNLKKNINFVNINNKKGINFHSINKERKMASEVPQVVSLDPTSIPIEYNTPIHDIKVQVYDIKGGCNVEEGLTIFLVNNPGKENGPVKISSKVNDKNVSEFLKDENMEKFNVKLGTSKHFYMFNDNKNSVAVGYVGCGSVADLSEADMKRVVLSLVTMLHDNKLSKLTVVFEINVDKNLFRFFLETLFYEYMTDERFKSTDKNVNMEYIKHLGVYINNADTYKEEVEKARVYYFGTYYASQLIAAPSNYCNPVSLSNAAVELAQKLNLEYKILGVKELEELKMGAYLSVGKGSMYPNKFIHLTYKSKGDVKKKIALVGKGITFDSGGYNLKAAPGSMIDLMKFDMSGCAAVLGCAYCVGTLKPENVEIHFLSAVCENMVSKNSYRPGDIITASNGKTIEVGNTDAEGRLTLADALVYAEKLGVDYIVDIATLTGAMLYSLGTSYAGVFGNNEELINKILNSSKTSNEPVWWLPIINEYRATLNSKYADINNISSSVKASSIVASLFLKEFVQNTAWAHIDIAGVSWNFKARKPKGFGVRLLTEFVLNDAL

[2] = biological target: Cytochrome P450 2C19 (Homo sapiens, UniProt P33261); experiment: Cytochrome panel assay with activity outcomes. Panel member name: p450-cyp2c19 Compounds with AC50 equal or less than 10 uM are considered active; format: functional; settings: read-out: AC50
[3] = biological target: Cytochrome P450 2C9 (Homo sapiens, UniProt P11712)
[4] = biological target: T2, Cytochrome P450 1A2 (Homo sapiens, UniProt P05177);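 note: PubChem cytochrome P450 panel assay, CYP1A2 panel member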
T2 sequence (P05177 whole entry): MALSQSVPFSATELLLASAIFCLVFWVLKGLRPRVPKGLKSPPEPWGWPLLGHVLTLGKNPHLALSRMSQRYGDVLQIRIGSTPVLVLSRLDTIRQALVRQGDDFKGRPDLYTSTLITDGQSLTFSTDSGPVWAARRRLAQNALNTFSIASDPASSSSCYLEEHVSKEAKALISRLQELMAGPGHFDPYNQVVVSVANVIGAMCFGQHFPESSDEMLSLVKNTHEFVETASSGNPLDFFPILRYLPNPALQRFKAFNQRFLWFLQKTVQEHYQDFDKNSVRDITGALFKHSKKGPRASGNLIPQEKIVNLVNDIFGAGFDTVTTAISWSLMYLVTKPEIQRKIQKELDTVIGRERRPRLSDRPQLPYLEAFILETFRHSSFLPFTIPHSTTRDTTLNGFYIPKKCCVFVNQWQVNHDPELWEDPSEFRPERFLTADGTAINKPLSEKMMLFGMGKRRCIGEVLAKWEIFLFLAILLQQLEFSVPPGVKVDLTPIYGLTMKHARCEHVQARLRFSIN

[5] = biological target: T3, DNA repair protein RAD52 homolog (Homo sapiens, UniProt P43351); format: functional, biochemical
T3 sequence (P43351 whole entry): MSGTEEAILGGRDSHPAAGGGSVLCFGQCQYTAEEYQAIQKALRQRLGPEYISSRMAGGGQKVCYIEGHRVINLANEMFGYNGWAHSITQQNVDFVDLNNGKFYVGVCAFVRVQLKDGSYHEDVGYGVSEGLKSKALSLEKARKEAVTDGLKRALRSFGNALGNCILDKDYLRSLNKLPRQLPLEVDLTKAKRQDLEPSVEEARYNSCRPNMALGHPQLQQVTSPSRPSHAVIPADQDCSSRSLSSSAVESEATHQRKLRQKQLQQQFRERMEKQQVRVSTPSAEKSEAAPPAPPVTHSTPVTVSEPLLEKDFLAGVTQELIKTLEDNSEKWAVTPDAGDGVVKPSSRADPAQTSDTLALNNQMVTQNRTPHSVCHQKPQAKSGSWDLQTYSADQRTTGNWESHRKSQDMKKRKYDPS

[6] = biological target: Delta-type opioid receptor (Homo sapiens, UniProt P41143); experiment: Counterscreen for agonists of heterodimerization of the mu 1 (OPRM1) and delta 1 (OPRD1) opioid receptors: Luminescence-based cell-based high throughput dose response assay to identify agonists of OPRD1 homodimerization. [Related pubchem assays (depositor defined):AID504326, AID504355, AID504692, AID504904, AID504905]; format: functional
[7] = biological target: Mu-type opioid receptor (Homo sapiens, UniProt P35372); experiment: Counterscreen for agonists of heterodimerization of the mu 1 (OPRM1) and delta 1 (OPRD1) opioid receptors: Luminescence-based cell-based high throughput dose response assay to identify agonists of OPRM1 homodimerization.; format: functional;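 note: U2OS cells expressing OPRM1 and beta-arrestin as split beta-galactosidase partners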
[8] = biological target: T4, Short transient receptor potential channel 4 (Mus musculus, UniProt Q9QUQ5); experiment: calcium entry via TRPC4 opening agents – cell-based, HEK293 TRPC4/mu-opioid, Fluo-4 calcium, dose response (AID 434937); format: functional
T4 sequence (Q9QUQ5 whole entry): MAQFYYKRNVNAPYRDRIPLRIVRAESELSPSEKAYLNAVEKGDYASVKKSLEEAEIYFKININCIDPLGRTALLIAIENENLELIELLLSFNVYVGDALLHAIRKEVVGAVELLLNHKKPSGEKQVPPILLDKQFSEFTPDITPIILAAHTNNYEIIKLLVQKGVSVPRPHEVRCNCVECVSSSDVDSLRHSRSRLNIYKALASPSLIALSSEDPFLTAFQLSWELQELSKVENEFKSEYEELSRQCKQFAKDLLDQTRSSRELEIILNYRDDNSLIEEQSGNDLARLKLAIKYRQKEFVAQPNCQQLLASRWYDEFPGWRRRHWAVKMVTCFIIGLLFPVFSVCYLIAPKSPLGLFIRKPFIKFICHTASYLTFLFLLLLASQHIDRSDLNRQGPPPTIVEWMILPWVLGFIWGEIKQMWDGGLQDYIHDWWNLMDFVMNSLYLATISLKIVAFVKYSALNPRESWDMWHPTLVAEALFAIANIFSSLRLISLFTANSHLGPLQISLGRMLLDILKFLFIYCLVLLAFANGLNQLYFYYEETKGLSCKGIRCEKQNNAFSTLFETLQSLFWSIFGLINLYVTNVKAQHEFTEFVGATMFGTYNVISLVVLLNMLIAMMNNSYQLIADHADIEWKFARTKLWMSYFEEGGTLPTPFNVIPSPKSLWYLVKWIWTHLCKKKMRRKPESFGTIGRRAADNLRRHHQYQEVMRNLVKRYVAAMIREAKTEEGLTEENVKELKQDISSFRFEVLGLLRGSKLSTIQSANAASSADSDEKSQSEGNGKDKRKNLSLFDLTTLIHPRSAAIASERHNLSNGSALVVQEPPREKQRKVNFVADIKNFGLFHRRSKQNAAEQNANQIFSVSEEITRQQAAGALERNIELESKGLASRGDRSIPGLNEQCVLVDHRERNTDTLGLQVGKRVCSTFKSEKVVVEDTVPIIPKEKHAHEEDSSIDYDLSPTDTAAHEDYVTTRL

[9] = biological target: 5-hydroxytryptamine receptor 5A (Homo sapiens, UniProt P47898); experiment: Counterscreen for agonists of OPRM1-OPRD1 heterodimerization: luminescence-based cell-based high throughput dose response assay to identify agonists of 5-hydroxytryptamine (serotonin) 5A receptor (HTR5A). [Related pubchem assays (depositor defined):AID504326, AID504355, AID504692, AID504904, AID504905]; format: functional
[10] = biological target: Alkaline phosphatase, placental type (Homo sapiens, UniProt P05187); experiment: human placental alkaline phosphatase inhibition – biochemical, luminescence, confirmation (AID 1512); format: functional
[11] = IGROV1 cell killing – plate reader, dry powder samples, PAX8 inhibitor project, dose response (AID 743043); format: functional, cell-based; settings: IGROV-1
[12] = biological target: Paired box protein Pax-8 (Homo sapiens, UniProt Q06710); experiment: PAX8 transcriptional activity inhibition in RMG-I – RMG-I cells, luciferase, cherry-pick, dose response (AID 687027); format: functional, cell-based;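 note: luciferase reporter driven by Pax8 target thyroperoxidase promoter measured by SteadyGlo luminescence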
Paired box protein Pax-8, sequence (Q06710 whole entry): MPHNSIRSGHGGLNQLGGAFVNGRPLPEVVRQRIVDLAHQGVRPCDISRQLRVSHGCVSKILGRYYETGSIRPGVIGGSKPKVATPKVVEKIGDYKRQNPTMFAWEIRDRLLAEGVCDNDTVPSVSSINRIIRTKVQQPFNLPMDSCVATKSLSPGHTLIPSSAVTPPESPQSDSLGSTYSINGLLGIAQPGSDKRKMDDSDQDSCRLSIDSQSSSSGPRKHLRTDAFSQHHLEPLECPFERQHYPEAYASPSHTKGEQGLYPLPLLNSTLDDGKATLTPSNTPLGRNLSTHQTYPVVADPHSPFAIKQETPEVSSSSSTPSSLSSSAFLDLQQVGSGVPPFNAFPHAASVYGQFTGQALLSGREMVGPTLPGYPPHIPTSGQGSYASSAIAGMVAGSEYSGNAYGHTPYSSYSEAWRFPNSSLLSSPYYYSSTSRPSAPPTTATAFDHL

Alkaline phosphatase, placental type, sequence (P05187 whole entry): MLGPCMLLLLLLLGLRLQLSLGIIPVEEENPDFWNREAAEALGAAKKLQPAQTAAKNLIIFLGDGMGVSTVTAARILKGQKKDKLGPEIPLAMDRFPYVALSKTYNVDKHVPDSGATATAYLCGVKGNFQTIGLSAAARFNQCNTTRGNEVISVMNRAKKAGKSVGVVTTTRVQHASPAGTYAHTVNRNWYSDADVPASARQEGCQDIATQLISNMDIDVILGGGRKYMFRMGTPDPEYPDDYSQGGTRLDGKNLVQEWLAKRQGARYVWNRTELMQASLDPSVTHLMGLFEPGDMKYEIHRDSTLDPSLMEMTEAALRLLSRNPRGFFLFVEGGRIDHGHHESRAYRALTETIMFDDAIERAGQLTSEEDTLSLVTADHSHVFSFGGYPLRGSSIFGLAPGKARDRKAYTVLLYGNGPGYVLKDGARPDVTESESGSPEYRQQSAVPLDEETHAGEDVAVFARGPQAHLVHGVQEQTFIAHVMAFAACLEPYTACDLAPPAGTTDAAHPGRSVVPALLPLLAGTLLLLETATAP
Mu-type opioid receptor, sequence (P35372 whole entry): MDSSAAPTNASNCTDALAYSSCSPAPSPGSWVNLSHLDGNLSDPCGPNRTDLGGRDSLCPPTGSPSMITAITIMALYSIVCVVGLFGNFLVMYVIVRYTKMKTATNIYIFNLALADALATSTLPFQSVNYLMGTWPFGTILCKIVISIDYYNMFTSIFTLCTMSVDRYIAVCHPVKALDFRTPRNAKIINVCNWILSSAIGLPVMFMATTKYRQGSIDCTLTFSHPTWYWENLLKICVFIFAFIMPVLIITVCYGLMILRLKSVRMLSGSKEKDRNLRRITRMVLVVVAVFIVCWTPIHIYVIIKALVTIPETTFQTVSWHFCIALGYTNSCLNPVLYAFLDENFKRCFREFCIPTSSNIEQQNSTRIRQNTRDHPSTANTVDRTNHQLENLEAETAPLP
Delta-type opioid receptor, sequence (P41143 whole entry): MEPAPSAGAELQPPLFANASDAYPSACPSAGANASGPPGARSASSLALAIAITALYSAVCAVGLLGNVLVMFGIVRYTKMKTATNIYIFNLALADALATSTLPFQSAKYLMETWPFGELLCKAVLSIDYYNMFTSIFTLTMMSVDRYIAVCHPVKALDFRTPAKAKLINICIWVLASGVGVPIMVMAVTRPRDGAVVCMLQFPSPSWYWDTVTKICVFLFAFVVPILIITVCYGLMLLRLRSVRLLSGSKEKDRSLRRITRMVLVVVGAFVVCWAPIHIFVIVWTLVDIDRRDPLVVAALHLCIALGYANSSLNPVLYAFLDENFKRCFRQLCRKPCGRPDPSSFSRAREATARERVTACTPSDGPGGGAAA
Cytochrome P450 2C19, sequence (P33261 whole entry): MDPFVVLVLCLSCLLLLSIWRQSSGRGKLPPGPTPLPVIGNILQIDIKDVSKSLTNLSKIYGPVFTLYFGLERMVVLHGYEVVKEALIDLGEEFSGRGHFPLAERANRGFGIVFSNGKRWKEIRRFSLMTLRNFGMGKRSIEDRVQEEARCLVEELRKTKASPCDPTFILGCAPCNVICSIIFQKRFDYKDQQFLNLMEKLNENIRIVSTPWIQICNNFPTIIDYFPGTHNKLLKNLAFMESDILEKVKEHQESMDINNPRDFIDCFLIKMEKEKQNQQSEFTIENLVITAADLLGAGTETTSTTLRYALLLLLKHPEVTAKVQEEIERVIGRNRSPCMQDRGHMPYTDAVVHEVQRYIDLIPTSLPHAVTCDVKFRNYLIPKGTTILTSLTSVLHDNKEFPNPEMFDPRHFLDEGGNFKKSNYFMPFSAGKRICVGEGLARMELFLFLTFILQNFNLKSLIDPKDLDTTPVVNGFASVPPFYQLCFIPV
5-hydroxytryptamine receptor 5A, sequence (P47898 whole entry): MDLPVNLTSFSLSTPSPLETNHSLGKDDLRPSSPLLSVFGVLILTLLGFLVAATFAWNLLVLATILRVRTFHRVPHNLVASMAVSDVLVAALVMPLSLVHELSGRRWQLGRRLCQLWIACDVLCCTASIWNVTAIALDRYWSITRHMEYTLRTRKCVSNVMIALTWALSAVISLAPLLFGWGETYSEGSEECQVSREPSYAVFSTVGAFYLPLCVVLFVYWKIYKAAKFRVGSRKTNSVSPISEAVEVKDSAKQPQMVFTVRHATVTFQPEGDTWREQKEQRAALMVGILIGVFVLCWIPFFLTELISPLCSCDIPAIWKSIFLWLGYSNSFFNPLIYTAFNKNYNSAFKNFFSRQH
Cytochrome P450 2C9, sequence (P11712 whole entry): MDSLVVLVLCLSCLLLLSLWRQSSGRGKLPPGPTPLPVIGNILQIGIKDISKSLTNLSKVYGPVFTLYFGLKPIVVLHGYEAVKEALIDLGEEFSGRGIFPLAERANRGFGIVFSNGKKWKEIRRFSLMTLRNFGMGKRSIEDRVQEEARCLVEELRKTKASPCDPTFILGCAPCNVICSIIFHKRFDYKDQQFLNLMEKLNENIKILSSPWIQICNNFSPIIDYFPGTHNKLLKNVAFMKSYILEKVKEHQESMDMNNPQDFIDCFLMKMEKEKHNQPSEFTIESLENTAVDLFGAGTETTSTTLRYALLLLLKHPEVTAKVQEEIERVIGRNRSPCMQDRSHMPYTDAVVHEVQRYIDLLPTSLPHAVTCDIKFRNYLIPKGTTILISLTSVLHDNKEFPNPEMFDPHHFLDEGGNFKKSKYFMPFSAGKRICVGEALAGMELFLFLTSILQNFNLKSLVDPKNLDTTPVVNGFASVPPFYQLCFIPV

- IC50 [1]: 40.7 µM (active)
- AC50 [2]: 20 µM (inconclusive)
- AC50 [3]: 12.6 µM (inconclusive)
- AC50 [4]: 15.8 µM (inconclusive)
SMILES: Cc1ccc(N(CC(N)=O)C2SC(=O)N(Cc3cccc(C(=O)O)c3)C2=O)cc1 (stereo unspecified)

- IC50 [1]: 18.2 µM (active)
SMILES: Cc1cc(C(=O)COC(=O)c2ccc[nH]c2=O)c(C)n1CCc1ccc(F)cc1

- AC50 [5]: 9.06 µM (active)
- EC50 [6]: > 92.5 µM (inactive)
- EC50 [7]: > 92.5 µM (inactive)
- EC50 [8]: 0.841 µM (active)
- EC50 [9]: > 92.5 µM (inactive)
SMILES: CC1CN(C)C(C)c2c1oc1ccc(N)cc21 (stereo unspecified)

- IC50 [1]: 2.52 µM (active)
SMILES: CCOc1ccc(NC(=O)CSc2nnc(N)s2)c([N+](=O)[O-])c1

- IC50 [1]: 62.2 µM (active)
SMILES: CCOC(=O)C(CSCC(=O)c1ccc(Br)cc1)NC(=O)OC(C)(C)C (stereo unspecified)

- IC50 [10]: > 100 µM (inactive)
SMILES: Cc1ccc(-n2ncc3c(NNC(=O)c4ccco4)ncnc32)c(C)c1

- AC50 [5]: 28.7 µM (active)
SMILES: C[C@@H]1ON(C)[C@H]2C[C@H]3c4cc(-c5cc6ccccc6o5)ccc4CCN3C[C@@H]12

SMILES: C[C@H](CO)N1C[C@H](C)[C@H](CN(C)S(=O)(=O)c2ccc(F)cc2)OCCCC[C@H](C)Oc2ccc(NS(=O)(=O)c3ccc(Cl)cc3)cc2C1=O
- AC50 [11]: 54.7 µM (active)
- AC50 [12]: 10.1 µM (active)
